# From ChEMBL document CHEMBL1201862, “PubChem BioAssay data set” (2004)
# Calls of active or inactive are those of the source.
# How the values were obtained:
# [1] = biological target: Eukaryotic translation initiation factor 4E (Mus musculus, UniProt P63073); assay: blockers of eIF4G binding by eIF4E – biochemical, TR-FRET, dose response (AID 855); assay type: functional;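 further: potency for disrupting eIF4E binding to eIF4GI seen as loss of FRET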
# [2] = biological target: Cytochrome P450 3A4 (Homo sapiens, UniProt P08684); conditions: Potency;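 further: confirmatory qHTS run detecting inhibitors and substrates of CYP3A4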
# [3] = HEK-293T cell viability reduction – luminescence, B-cell screen hits, cytotoxicity control for BCR NF-kB inhibitor project, dose response (AID 489021); assay type: functional, cell-based;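 further: HEK-293T cells carrying an NF-kB luciferase reporter; cells exposed to compound for about 14 hours before viability readout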
# [4] = biological target: T1, Short transient receptor potential channel 4 (Mus musculus, UniProt Q9QUQ5); assay: block of DAMGO-driven TRPC4 calcium entry – cell-based, HEK293 TRPC4/mu-opioid, Fluo-4 calcium, dose response (AID 434942); assay type: functional;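 further: potency of inhibitors blocking the TRPC4 calcium response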
# T1 sequence (Q9QUQ5 whole entry): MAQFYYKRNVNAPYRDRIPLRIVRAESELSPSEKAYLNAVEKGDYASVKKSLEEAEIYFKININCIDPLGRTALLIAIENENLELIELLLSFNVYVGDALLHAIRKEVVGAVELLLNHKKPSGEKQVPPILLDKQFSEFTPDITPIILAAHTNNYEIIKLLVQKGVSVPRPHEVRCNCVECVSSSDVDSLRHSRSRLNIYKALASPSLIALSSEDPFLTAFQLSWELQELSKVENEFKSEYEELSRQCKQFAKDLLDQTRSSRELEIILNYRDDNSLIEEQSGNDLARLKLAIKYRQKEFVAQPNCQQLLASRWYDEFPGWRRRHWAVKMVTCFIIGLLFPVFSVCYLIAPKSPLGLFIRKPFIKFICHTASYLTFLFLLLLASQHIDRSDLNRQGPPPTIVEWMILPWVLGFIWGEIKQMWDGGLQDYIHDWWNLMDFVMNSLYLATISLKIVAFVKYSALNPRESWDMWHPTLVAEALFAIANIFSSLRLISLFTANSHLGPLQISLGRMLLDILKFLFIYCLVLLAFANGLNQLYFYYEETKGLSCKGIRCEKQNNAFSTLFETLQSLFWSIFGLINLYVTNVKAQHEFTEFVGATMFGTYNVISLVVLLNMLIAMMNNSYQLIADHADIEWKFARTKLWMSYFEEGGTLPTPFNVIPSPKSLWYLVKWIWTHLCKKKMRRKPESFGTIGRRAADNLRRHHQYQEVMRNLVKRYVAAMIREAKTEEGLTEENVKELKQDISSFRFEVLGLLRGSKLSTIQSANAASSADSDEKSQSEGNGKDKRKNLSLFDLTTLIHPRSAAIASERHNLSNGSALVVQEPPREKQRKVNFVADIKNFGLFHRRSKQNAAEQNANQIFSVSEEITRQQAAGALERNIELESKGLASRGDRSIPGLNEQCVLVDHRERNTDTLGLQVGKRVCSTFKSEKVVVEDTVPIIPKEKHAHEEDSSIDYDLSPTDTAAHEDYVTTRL
# [5] = biological target: Voltage-dependent T-type calcium channel subunit alpha-1H (Homo sapiens, UniProt O95180); assay type: functional;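 further: channel activity triggered by adding a high calcium stimulation buffer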
# [6] = THP-1 cell cytotoxicity, dose response, cytotoxicity control for non-replicating M. tuberculosis project (AID 489025); assay type: functional
# [7] = NIH3T3 cell viability loss – ATP luminescence, mouse fibroblasts, counter-screen, dose response (AID 2010); assay type: functional, cell-based;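 further: cells exposed to compound for about 90 hours before reading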
# [8] = blockers of bursicon-stimulated LGR2 cAMP reporter – cell-based, HEK293, CRE-luciferase reporter, cherry pick, set 2, dose response (AID 743343); assay type: functional;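 further: transfected cells were stimulated with diluted bursicon conditioned medium after compound addition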
# [9] = cells; assay type: functional
# [10] = toxicity toward HepG2 liver cells – cell-based, plate reader, cherry-pick, antagonist series, cytotoxicity control, dose response (AID 743416); assay type: functional
# [11] = Vero E6 cell cytotoxicity, dose response, cytotoxicity control for non-replicating M. tuberculosis project, secondary assay (AID 492998); assay type: functional, VeroE6; conditions: Vero C1008
# [12] = A549 cell cytotoxicity, dose response, cytotoxicity control, plate reader, cherry-pick, antagonist series (AID 743412); assay type: functional, cell-based
# [13] = viability loss in HEK293 cells – cell-based, plate reader, cherry-picked samples, cytotoxicity control, dose response (AID 743446); assay type: functional
# [14] = blockade of melanocortin 4 receptor signaling – cell-based, plate reader, cherry pick, counter-screen for LGR2 antagonist project, dose response (AID 743444); assay type: functional;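 further: transfected HEK 293 cells stimulated with alpha-MSH peptide; potency of inhibitors of the alpha-MSH evoked signal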
# [15] = HepG2 cell cytotoxicity, dose response, cytotoxicity control for non-replicating M. tuberculosis project (AID 489018); assay type: functional; conditions: Mycobacterium tuberculosis
# [16] = Trypanosoma cruzi growth suppression in host cells – NIH3T3 host cells, beta-gal luminescence, confirmation (AID 2044); assay type: functional, cell-based;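 further: intracellular parasites grown in NIH/3T3 mouse fibroblasts as host cells; luminescent beta-galactosidase reporter signal from transgenic T. cruzi replicating inside host cells; inhibitors lower the luminescence signal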
# [17] = A cytotoxicity screen of small molecule inhibitors of the PhoP region in Salmonella typhi identified in the primary screen. [Related pubchem assays: 1850, 1864, 1985 ]; assay type: functional
# [18] = loss of viability in HepG2 cells – cell-based, CellTiter-Glo, cherry-picked, cytotoxicity control for Shn3 inhibitor project, dose response (AID 624134); assay type: functional
# [19] = Luminescence Cell-Based Dose Retest to Confirm Inhibitors of Cancer Stem Cells. [Related pubchem assays (depositor defined):AID2717, AID2721]; assay type: functional; conditions: Homo sapiens
# [20] = non-specific 3'UTR reporter inhibition in Clone20-Shn3RL – cell-based, Renilla luciferase, cherry-picked, counter-screen for Shn3 inhibitor project, dose response (AID 624133); assay type: functional
# [21] = reduction of Shn3 3'UTR-driven luciferase in osteoblasts – cell-based, Clone20 osteoblasts, firefly luciferase, cherry-picked, dose response (AID 624132); assay type: functional;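 further: firefly luciferase luminescence from reporter carrying the Shn3 3'UTR in osteoblasts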
# [22] = tested on: BJ; assay: BJ-TERT-LT-ST fibroblast viability loss – cell-based, RAS-independent, luminescence, dose response (AID 1935); assay type: functional; conditions: Homo sapiens;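 further: BJ fibroblasts immortalized with TERT plus LT and ST oncogenes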
# [23] = DRD fibroblast viability loss – cell-based, non-viral oncogenic, luminescence, dose response (AID 1934); assay type: functional; conditions: Homo sapiens
# [24] = tested on: BJ; assay: BJ-TERT fibroblast viability loss – cell-based, RAS-independent, luminescence, dose response (AID 1933); assay type: functional; conditions: Homo sapiens
# [25] = HEK-293T viability loss after treatment – luminescence, T-cell screen hits, cytotoxicity control for TCR NF-kB inhibitor project, dose response (AID 489026); assay type: functional, cell-based;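 further: cells exposed to compound about 14 hours before the viability readout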
# [26] = tested on: BJ; assay: cells; assay type: functional, cell-based; conditions: Homo sapiens
# [27] = tested on: INS1; assay: INS-1E survival protection against cytokine death – cell-based, luminescence, retest, dose response (AID 449756); assay type: functional; conditions: Rattus norvegicus;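 further: cell death triggered by IL-1 beta plus TNF-alpha plus IFN-gamma mixture; protective hits raise ATP signal compared with cytokine alone wells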
# Chain of Voltage-dependent T-type calcium channel subunit alpha-1H (O95180 whole entry): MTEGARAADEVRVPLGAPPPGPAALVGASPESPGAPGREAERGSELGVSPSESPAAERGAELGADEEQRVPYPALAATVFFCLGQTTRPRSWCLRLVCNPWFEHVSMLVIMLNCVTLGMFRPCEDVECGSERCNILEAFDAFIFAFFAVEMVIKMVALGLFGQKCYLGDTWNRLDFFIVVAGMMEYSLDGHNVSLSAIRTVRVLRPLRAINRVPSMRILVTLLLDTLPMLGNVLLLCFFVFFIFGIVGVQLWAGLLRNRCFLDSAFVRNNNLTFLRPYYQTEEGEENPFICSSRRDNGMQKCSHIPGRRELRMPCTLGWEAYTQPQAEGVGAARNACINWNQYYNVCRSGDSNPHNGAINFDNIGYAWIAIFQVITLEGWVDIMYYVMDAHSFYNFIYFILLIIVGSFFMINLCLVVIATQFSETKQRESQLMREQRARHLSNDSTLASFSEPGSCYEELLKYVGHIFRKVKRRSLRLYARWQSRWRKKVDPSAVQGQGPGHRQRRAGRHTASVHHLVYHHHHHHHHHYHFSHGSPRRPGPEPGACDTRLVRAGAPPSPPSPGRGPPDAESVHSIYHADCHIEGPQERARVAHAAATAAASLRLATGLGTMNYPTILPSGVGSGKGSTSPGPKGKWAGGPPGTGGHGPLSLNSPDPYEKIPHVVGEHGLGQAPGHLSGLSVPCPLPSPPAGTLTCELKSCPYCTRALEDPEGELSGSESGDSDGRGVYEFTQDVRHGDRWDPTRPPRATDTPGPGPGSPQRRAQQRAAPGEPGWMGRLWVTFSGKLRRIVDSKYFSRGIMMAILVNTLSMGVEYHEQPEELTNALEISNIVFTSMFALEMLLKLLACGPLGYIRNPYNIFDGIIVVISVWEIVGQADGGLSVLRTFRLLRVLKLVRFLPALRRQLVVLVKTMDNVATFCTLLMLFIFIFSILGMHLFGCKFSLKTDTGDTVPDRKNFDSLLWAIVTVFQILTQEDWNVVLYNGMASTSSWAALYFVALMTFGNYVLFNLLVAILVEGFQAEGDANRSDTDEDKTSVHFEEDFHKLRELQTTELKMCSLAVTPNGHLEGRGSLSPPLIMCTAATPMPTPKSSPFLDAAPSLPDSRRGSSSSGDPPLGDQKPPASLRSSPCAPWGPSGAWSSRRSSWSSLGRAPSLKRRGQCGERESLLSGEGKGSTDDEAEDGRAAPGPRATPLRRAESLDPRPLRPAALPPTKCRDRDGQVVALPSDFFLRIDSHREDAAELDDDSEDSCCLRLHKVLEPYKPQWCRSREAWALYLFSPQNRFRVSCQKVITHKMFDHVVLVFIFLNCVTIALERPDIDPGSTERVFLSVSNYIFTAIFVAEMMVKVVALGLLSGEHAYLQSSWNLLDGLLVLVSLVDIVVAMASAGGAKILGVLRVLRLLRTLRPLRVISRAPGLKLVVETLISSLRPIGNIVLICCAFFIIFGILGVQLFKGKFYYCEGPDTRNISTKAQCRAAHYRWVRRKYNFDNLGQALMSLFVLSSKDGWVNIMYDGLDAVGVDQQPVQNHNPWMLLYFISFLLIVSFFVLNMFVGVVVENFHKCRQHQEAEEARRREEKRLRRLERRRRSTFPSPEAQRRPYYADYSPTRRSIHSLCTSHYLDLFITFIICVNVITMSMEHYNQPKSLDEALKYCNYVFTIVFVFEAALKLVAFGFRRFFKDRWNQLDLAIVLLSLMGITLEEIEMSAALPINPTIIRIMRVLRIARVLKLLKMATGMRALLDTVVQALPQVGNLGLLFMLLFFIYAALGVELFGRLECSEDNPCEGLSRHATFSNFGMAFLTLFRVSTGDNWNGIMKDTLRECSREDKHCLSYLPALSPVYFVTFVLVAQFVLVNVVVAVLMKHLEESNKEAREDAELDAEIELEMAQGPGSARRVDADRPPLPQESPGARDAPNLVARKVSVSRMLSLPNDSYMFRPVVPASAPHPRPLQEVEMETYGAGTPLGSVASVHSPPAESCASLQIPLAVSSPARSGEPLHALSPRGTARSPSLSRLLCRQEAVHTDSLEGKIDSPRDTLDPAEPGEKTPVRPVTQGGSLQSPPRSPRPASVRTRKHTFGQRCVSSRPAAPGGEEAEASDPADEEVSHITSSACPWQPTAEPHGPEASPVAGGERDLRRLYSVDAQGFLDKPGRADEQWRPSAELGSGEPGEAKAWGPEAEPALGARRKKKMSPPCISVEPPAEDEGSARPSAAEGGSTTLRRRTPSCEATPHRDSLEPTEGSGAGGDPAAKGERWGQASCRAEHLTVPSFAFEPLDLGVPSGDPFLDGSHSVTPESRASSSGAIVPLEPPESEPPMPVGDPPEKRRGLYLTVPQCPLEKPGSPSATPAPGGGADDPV
# Chain of Cytochrome P450 3A4 (P08684 whole entry): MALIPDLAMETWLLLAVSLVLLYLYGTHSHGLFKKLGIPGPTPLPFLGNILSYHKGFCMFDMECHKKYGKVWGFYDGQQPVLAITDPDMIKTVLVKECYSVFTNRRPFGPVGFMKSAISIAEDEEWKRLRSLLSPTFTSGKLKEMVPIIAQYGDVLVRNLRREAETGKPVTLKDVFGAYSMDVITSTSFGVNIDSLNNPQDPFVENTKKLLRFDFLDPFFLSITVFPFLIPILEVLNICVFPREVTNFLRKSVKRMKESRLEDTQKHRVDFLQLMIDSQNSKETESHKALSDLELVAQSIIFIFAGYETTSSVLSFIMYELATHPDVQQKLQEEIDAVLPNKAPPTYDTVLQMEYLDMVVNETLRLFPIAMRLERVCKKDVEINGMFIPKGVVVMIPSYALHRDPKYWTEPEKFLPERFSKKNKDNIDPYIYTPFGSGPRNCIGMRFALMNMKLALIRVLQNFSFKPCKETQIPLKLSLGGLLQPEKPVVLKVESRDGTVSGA
# Chain of Eukaryotic translation initiation factor 4E (P63073 whole entry): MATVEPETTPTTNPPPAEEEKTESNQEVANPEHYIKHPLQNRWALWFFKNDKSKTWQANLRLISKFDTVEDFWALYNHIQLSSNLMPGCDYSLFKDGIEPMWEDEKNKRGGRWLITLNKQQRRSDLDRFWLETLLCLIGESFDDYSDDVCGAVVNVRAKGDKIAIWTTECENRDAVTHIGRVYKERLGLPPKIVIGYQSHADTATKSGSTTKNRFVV
compound,measurement,setting,value
CC1=CC2=NC(=O)/C(=C\c3cc(C)n(-c4ccccc4)c3C)C(=N)N2O1,IC50,[1],> 64 µM (inactive)
Oc1ccc(C2Oc3cc(O)cc(O)c3CC2O)cc1 (centres undefined),AC50,[2],12.6 µM (inconclusive)
C=CCn1c(S)nnc1-c1ccc2[nH]c(C)c(C)c2c1,IC50,[1],> 64 µM (inactive)
Cc1ccc(C(=O)CSc2nnc(COc3cccc(C)c3)o2)cc1,IC50,[3],> 80 µM (inactive)
CC(=O)N1CCN(c2ccccc2NC(=O)c2ccc3ccccc3c2)CC1,EC50,[4],1.5 µM (active)
CCC(CC)c1nnc(NC(=O)C2COc3ccccc3O2)s1 (centres undefined),EC50,[5],3.85 µM (active)
Cc1ccc(S(=O)(=O)Nc2c(C)n(C)n(-c3ccccc3)c2=O)cc1C(=O)NCc1ccccn1,IC50,[1],> 64 µM (inactive)
Cc1cc([N+](=O)[O-])ccc1NC(=O)Nc1ccc(F)cc1F,CC50,[6],20.3 µM (active)
same,EC50,[7],> 60 µM (not active)
same,AC50,[8],30.9 µM (active)
same,IC50,[9],46.7 µM (active)
same,AC50,[10],18.8 µM (active)
same,CC50,[11],> 20 µM (active)
same,AC50,[12],19.6 µM (active)
same,AC50,[13],22.8 µM (active)
same,AC50,[14],30.1 µM (active)
same,CC50,[15],> 20 µM (active)
same,EC50,[16],4.36 µM (active)
CCOC(=O)C1(CCOc2ccccc2)CCN(Cc2cccn2-c2ncccn2)CC1,EC50,[4],1.88 µM (active)
c1ccc(-c2nc(NCc3ccco3)c3ccccc3n2)cc1,EC50,[4],3.76 µM (active)
Cn1c(N)c(C(=O)COC(=O)c2cc(-c3ccccc3)nc3ccccc23)c(=O)n(Cc2ccccc2)c1=O,AC50,[2],12.6 µM (inconclusive)
COc1ccc(S(=O)(=O)N[C@H](C(=O)N2CC[C@@]3(O)CCCC[C@H]3C2)c2ccccc2)cc1,EC50,[17],> 50 µM (active)
COc1ccc2ccccc2c1C1CC(=O)N2CN(C)CSC2=C1C#N (centres undefined),IC50,[1],> 64 µM (inactive)
CCOc1ccc2[nH]c3c(N4CCN(c5ccccn5)CC4)ncnc3c2c1,EC50,[4],1.19 µM (active)
COc1ccc(/C=C2\Sc3ccc(C(=O)NCCN4CCCCCC4)cc3N(C)C2=O)cc1,CC50,[6],17.9 µM (active)
same,IC50,[9],19 µM (active)
same,CC50,[11],> 20 µM (active)
same,CC50,[15],14.3 µM (active)
CC(NCc1ccc(OCc2ccc(Cl)cc2)cc1)C(O)c1ccccc1 (centres undefined),CC50,[6],9.8 µM (active)
same,AC50,[18],14.6 µM (active)
same,IC50,[9],13.3 µM (active)
same,AC50,[19],3.57 µM (active)
same,CC50,[11],14.6 µM (active)
same,AC50,[20],21.2 µM (active)
same,AC50,[21],10.9 µM (active)
same,CC50,[15],15.5 µM (active)
COc1cccc(Cn2nnc(C(=O)Nc3cc(Cl)ccc3OC)c2N)c1,AC50,[19],0.498 µM (active)
same,IC50,[3],> 80 µM (inactive)
COc1ccccc1N1CCN(C(=O)C2c3ccccc3Oc3ccccc32)CC1,EC50,[22],1.65 µM (inconclusive)
same,EC50,[23],2.06 µM (inconclusive)
same,EC50,[24],2.13 µM (active)
same,IC50,[25],> 80 µM (inactive)
same,EC50,[5],3.44 µM (active)
same,EC50,[26],40.2 µM (inconclusive)
CCN(Cc1ccccc1)C(c1ccc(C(F)(F)F)cc1)c1nnnn1C(C)(C)C (centres undefined),AC50,[27],6.45 µM (active)
same,EC50,[5],11.8 µM (active)
COC(=O)CC1[C@@]2(C)C[C@@]34OC5(C)OC6(CC[C@@]7(C)C(c8ccoc8)OC(=O)C(C(C)=O)C7[C@]6(O5)C(O)[C@@]3(O)C2O)[C@]14C (some centres undefined),AC50,[2],39.8 µM (inconclusive)
CCCCCCN(C(=O)CCCCCN1C(=O)NC(c2ccc(-c3ccccc3)cc2)C(C(=O)OCc2ccccc2)=C1C)C(C(=O)NCCCC)c1ccccn1 (centres undefined),AC50,[2],1 µM (inconclusive)
O=C(N/N=C/c1ccc(Cl)cc1Cl)c1ccc(-n2cnnn2)cc1,IC50,[3],> 80 µM (inactive)
